Here are results for two compounds from patent US10287619B2, “Measurement method for dehydrogenase and substrate concentration thereof, electron mediator, and measurement reagent for dehydrogenase including said electron mediator and for substrate thereof” (Dojindo Laboratories, priority 2014, dated 2019).

In assay [1] the test system is Human myeloid leukemia cells (HL60). Put plainly: Evaluation of electron transfer with living cells (WST-8 formazan formation). The assay is classed as cell-based. The note with it: HL60 25,000 to 0 cells/well; WST-8 500 μM, electron mediator 10 μM; 37° C. for 3 hours; FIG. 3A-3D. How it is done:
Examples of the evaluation of the electron transfer between the electron mediators and the living cells are shown. For comparison, a similar experiment was carried out using 1-Methoxy PMS, a known electron mediator that carries out electron transfer with the living cells. Human myeloid leukemia cells (HL60) were seeded on a 96 well microplate at 25,000 to 0 cells/well, the measurement reagent was added at a final concentration shown below, after reacting at 37° C. for 3 hours and absorbance at 450 nm was measured. Final concentration of the measurement reagent: WST-8 (500 μM), the electron mediator (10 μM).
On the technique in general: Formazan colour is commonly taken as a measure of viable cells.

The test system of assay [2] is Chinese Hamster Ovarian (CHO) cells. Put plainly: Cytotoxicity assay using LDH leaked out of the dead cells as an index. The assay is classed as cell-based. The note with it: comparison of the IC50 obtained with the electron mediator of the invention (FIG. 5A) and with the commercial LDH-Cytotoxicity Assay Kit (FIG. 5B); MMC 1 mM to 0.0001 mM, 20 hours. As to the method:
The example of the cytotoxicity assay using the LDH leaked out of the dead cell as an index and the solutions of the chromogenic reagent prepared using the electron mediator according to the present invention is shown. As a model of the cytotoxicity assay, cytotoxicity of mitomycin C (MMC) against Chinese Hamster Ovarian (CHO) cells was assayed.
A suspension of the CHO cells at the concentration of 1.5×10^5 cells/mL was prepared using serum-containing medium and 100 μL of the suspension was seeded to each well of a 96 well microplate. After incubating at 37° C. for 4 hours in a CO2 incubator, 10 μL of MMC was added at final concentration of 1 mM to 0.0001 mM. The microplate was incubated at 37° C. for 20 hours in the CO2 incubator. […] After incubating at 37° C. for 20 minutes in a CO2 incubator, the absorbance at 450 nm was measured using a microplate reader.
A comparative experiment using a commercially available dead cell assay kit (BioPioneer Inc., LDH-Cytotoxicity Assay Kit) using LDH as an index. […] The measurement method of the absorbance was similar to that as mentioned above except that supernatant of the medium was taken and transferred to another plate so as not to be contaminated with the living cells upon conducting the chromogenic reaction.

For `COS(=O)(=O)[O-].COc1cccc2c1nc1ccccc1[n+]2C` [1-Methoxy PMS, 1-methoxy phenazine methosulfate], in assay [1], the “formation of the formazan attributed to the living cells (absorbance at 450 nm)” value is “increasing of absorbance”.

For `CO[C@@]12[C@H](COC(N)=O)C3=C(C(=O)C(C)=C(N)C3=O)N1C[C@@H]1N[C@@H]12` [mitomycin C], the “50% Inhibition concentration (IC50) against the CHO cell” value in assay [2] was “No difference was observed”.
